According to patent publication US11072581B2, “N-acyl-arylsulfonamide derivatives as aminoacyl-tRNA synthetase inhibitors” (Oxford Drug Design Limited, priority 2015, dated 2021):
pIC50: −log10 of the molar value. Where two headings read alike, the source gives them in different places.

Columns and labels:
[1] = target: T1, EcoVRS (valyl-tRNA synthetase from Escherichia coli) (Escherichia coli, UniProt P07118); assay: aaRS aminoacylation assay (ATP consumption), EcoVRS; type: biochemical; settings: i.a. = inactive at a concentration below 50 uM
T1 construct: made in house; host or cells: Escherichia coli M15
T1 sequence (P07118 whole entry): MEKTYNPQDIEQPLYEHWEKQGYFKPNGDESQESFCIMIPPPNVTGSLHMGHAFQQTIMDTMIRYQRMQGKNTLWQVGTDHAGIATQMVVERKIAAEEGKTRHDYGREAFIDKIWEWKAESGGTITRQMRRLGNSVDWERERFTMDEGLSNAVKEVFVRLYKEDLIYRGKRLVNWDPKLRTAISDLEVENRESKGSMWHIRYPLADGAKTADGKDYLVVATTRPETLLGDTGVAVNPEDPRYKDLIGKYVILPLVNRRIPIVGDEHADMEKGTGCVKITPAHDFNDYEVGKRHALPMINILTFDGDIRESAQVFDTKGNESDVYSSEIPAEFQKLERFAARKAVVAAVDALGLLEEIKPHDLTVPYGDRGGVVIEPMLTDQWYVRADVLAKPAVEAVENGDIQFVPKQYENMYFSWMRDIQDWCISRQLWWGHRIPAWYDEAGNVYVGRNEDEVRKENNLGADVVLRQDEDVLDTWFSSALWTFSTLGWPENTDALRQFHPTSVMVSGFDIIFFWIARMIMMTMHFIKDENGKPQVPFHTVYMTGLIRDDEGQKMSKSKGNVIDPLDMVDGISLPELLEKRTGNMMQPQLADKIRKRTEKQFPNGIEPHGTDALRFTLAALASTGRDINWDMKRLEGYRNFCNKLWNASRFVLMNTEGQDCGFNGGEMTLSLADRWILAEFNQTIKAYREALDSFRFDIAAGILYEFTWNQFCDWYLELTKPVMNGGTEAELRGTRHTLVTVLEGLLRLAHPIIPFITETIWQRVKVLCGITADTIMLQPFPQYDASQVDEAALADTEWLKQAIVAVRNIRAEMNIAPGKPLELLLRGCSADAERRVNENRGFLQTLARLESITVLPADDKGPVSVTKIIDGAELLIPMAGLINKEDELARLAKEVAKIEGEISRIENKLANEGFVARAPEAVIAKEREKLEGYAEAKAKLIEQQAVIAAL
Description: (§1) The compounds have been tested for antibacterial activity in vitro as aminoacyl-tRNA synthetases (aaRS) inhibitors following the following process.
(§2) Leucyl-, valyl- and isoleucyl-tRNA synthetases (LRS, VRS and IRS, respectively) from Escherichia coli (Eco) and Staphylococcus aureus (Sau).
(§3) Escherichia coli M15 cells transformed with plasmid pQE-60, or pQE-70, containing the open-reading frame sequence of one targeted aaRS were induced with 1 mM IPTG (Isopropyl β-D-1-thiogalactopyranoside) for 3 h at 37° C. Bacterial cells were harvested and lysed with 20 mM NaH2PO4 (pH 8.0), 200 mM NaCl, 10 mM imidazole and protease inhibitor cocktail (Roche). Pathogenic aaRS was purified by nickel affinity standard chromatography. Protein concentration was determined by spectrophotometry.
(§4) tRNA^Leu, tRNA^Val and tRNA^Ile from E. coli and S. aureus were transcribed in vitro for 4 h at 37° C. using T7 RNA polymerase. Transcription reaction contained 40 mM Tris-HCl (pH 8.0), 22 mM MgCl2, 1 mM spermidine, 5 mM DTT, 0.01% Triton X-100, 4 mM GTP, 4 mM ATP, 4 mM UTP, 4 mM CTP, 16 mM GMP, […] T7 RNA polymerase and 150 μg BstNI digested plasmid. Once finished, the reaction was applied on a 6% polyacrylamide-8 M urea denaturing gel to purify the transcribed tRNA and discard any impurities. Purified tRNA was quantified with Nanodrop 2000 (Thermo Scientific).
(§5) The aminoacylation reaction catalyzed by aminoacyl-tRNA synthetases (aaRS) takes place in two steps. In the first step, aaRS activates its cognate amino acid with ATP; and in the second step the activated amino acid is loaded to its corresponding tRNA. This reaction can be summarized as follows: ARS+aa+ATP=ARS-aa-AMP+PPi ARS-aa-AMP+tRNA=aa-tRNA+AMP+ARS [2] (ARS, Aminoacyl-tRNA synthetase; aa, amino acid; ARS-aa-AMP, enzyme-bound to aminoacyl-adenylate; aa-tRNA, aminoacyl-tRNA).
(§6) The activity of the pathogenic aaRSs was monitored by measuring the ATP consumption rate, since this consumption is directly proportional to the activity of the aaRS. If the tested compound, at a single point concentration of 50 μM, is inhibiting the aminoacylation reaction, there is a decrease in the ATP consumption, compared to the control reaction without compound, allowing the calculation of an inhibition ratio.
(§7) When the inhibition ratio for a given compound was above 80%, IC50 determination was performed with the same enzymatic assay (using the commercial kit Kinase RR from BioThema AB, Sweden) in the presence of serial dilutions of inhibitor. Known inhibitors of LRS, VRS or IRS were used as a positive control of the assay. The IC50 was calculated based on nonlinear regression analysis.

[2] = target: T2, SauIRS (isoleucyl-tRNA synthetase from Staphylococcus aureus) (Staphylococcus aureus, UniProt P41972); assay: aaRS aminoacylation assay (ATP consumption), SauIRS; type: biochemical; settings: i.a. = inactive at a concentration below 50 uM
T2 construct: made in house; host or cells: Escherichia coli M15
T2 sequence (P41972 1-917): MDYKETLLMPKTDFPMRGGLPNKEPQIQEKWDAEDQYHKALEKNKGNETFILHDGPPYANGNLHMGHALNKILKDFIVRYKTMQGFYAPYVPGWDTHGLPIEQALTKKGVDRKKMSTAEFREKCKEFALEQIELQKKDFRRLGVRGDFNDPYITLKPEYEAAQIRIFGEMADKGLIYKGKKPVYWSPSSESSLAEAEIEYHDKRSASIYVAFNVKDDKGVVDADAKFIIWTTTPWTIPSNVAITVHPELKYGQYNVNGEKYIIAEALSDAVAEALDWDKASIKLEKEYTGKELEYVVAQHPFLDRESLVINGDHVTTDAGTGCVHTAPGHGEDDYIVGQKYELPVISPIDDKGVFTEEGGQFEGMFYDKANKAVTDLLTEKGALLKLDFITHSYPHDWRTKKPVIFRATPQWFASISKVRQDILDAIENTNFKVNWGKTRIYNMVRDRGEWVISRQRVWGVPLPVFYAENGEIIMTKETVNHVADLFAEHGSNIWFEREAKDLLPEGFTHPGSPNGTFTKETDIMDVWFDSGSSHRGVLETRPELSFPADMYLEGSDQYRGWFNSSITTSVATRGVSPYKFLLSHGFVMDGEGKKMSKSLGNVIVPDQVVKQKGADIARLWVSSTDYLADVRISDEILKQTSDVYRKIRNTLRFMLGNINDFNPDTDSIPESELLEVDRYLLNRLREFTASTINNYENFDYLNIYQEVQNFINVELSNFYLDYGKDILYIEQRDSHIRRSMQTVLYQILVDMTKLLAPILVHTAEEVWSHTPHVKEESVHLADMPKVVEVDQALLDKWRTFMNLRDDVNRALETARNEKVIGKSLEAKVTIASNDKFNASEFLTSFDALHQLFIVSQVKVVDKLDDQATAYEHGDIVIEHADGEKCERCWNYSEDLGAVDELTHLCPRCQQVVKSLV
Description: as §1, §2, §3, §4, §5, §6, §7

[3] = target: T3, EcoIRS (isoleucyl-tRNA synthetase from Escherichia coli) (Escherichia coli, UniProt P00956); assay: aaRS aminoacylation assay (ATP consumption), EcoIRS; type: biochemical; settings: i.a. = inactive at a concentration below 50 uM
T3 construct: made in house; host or cells: Escherichia coli M15
T3 sequence (P00956 whole entry): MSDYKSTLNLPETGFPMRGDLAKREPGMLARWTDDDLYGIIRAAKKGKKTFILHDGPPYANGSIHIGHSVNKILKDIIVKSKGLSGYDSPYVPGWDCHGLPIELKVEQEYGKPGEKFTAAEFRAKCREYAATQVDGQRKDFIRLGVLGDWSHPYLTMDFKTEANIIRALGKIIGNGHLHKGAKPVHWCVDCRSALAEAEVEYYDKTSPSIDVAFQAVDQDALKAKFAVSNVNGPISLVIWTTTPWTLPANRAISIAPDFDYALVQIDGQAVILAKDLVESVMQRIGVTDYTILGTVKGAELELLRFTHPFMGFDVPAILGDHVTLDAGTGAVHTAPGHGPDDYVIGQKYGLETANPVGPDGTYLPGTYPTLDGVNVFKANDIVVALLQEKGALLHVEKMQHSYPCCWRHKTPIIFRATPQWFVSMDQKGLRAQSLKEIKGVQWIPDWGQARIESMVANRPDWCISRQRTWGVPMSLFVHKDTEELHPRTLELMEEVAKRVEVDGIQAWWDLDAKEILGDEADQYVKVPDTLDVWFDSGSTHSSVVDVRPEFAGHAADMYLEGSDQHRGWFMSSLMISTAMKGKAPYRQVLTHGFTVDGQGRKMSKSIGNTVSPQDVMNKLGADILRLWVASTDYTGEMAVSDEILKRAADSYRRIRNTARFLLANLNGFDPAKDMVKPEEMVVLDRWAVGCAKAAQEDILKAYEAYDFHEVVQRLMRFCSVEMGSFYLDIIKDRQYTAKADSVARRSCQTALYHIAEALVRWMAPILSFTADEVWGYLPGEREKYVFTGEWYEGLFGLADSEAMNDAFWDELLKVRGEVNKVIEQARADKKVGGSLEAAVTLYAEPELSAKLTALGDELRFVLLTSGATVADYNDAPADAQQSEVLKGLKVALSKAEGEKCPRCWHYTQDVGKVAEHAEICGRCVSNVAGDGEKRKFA
Description: as §1, §2, §3, §4, §5, §6, §7

[4] = target: T4, EcoLRS (leucyl-tRNA synthetase from Escherichia coli) (Escherichia coli, UniProt P07813); assay: aaRS aminoacylation assay (ATP consumption), EcoLRS; type: biochemical
T4 construct: made in house; host or cells: Escherichia coli M15
T4 sequence (P07813 whole entry): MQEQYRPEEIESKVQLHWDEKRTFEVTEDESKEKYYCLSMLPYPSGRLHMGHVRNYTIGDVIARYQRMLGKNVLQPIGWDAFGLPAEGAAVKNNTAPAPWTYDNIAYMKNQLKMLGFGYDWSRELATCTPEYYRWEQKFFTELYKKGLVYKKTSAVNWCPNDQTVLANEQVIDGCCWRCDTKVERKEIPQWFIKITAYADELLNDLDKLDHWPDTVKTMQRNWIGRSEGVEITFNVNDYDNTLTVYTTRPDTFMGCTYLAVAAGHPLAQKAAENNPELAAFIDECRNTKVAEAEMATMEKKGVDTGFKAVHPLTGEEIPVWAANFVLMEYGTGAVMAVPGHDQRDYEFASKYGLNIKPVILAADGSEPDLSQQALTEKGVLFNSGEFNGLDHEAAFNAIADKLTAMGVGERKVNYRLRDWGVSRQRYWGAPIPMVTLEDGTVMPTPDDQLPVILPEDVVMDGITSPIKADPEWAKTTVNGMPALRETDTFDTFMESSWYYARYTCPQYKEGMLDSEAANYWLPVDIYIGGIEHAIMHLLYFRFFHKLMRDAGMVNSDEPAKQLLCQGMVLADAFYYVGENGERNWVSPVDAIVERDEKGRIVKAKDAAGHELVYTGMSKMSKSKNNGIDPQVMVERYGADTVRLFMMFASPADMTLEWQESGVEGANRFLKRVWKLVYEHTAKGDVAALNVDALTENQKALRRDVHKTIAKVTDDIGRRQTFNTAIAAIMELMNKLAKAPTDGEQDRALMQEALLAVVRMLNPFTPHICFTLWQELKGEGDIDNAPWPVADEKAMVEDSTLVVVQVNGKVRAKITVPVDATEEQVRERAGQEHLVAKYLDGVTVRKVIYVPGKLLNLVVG
Description: as §1, §2, §3, §4, §5, §6, §7

[5] = i.a. = inactive at a concentration below 50 uM, read-out: IC50 EcoLRS
[6] = i.a. = inactive at a concentration below 50 uM

SMILES | IC50 EcoVRS [1] | melting point | IC50 SauIRS [2] | IC50 EcoIRS [3] | pIC50 [4] | pIC50 [4, 5] | IC50 EcoLRS [4, 6] | % at single point concentration (inhibition ratio), EcoLRS ([4]; @50 μM compound) [%@50]
N[C@@H](CC1CC1)C(=O)NS(=O)(=O)c1cccc(-c2ccccc2)c1 (racemic) [Compound 5.10] | i.a | 214.4 °C | i.a | i.a | 4.32 | – | – | –
CC(C)C[C@H](N)C(=O)NS(=O)(=O)c1ccc(Oc2ccccc2)cc1 [Compound 5.2] | i.a | 224 to 225 °C | i.a | i.a | 6.15 | – | – | –
CC(C)C[C@H](N)C(=O)NS(=O)(=O)c1ccccc1-c1ccccc1 [Compound 5.3] | i.a | 143 °C (dec.) | i.a | i.a | 6.80 | – | – | –
CC(C)C[C@H](N)C(=O)NS(=O)(=O)c1cccc(-c2ccccc2)c1 [Compound 5.9] | i.a | 149 °C (dec.) | i.a | i.a | – | 7.49 | – | –
CC(C)C[C@H](N)C(=O)NS(=O)(=O)c1ccc(-c2ccccc2)cc1 [Compound 5.11] | i.a | 212 °C (dec.) | i.a | i.a | 4.56 | – | – | –
CC(C)C[C@H](N)C(=O)NS(=O)(=O)c1c(C(C)C)cc(C(C)C)cc1C(C)C [Compound 5.12] | i.a | 217 °C | i.a | i.a | 4.49 | – | – | –
CC(C)C[C@H](N)C(=O)NS(=O)(=O)c1ccc2ccccc2c1 [Compound 5.14] | i.a | 215 °C (dec.) | i.a | i.a | – | 7.19 | – | –
CC[C@H](C)[C@H](N)C(=O)NS(=O)(=O)c1ccc2ccccc2c1 [Compound 5.15] | i.a | 229.7 °C | i.a | i.a | – | – | i.a | –
COc1ccc2cc(S(=O)(=O)NC(=O)[C@@H](N)CC(C)C)ccc2c1 [Compound 5.17] | i.a | 230 to 232 °C | i.a | i.a | 6.04 | – | – | –
CC(C)C[C@H](N)C(=O)NS(=O)(=O)c1cccc2ccncc12 [Compound 5.21] | i.a | 55 to 57 °C | i.a | i.a | 6.32 | – | – | –
CC(C)C[C@H](N)C(=O)NS(=O)(=O)c1cccc2c1OCCC2 [Compound 5.25] | i.a | 165 °C (dec.) | i.a | i.a | 6.83 | – | – | –
CNc1cc(-c2cccc(S(=O)(=O)NC(=O)[C@@H](N)CC(C)C)c2)nc(N)n1 [Compound 5.27] | i.a | – | i.a | i.a | 7.29 | – | – | –
CC(C)C[C@H](N)C(=O)NS(=O)(=O)c1cccc(-c2cc(N(C)C)nc(N)n2)c1 [Compound 5.28] | i.a | – | i.a | i.a | 5.80 | – | – | –
CSc1cc(-c2cccc(S(=O)(=O)NC(=O)[C@@H](N)CC(C)C)c2)nc(N)n1 [Compound 5.29] | i.a | – | i.a | i.a | 7.68 | – | – | –
Cc1cc(-c2cccc(S(=O)(=O)NC(=O)[C@@H](N)CC3CC3)c2)nc(N)n1 [Compound 5.30] | i.a | > 192 °C (dec.) | i.a | i.a | 4.85 | – | – | –
Cc1cc(-c2cccc(S(=O)(=O)NC(=O)[C@@H](N)CC3CCC3)c2)nc(N)n1 [Compound 5.31] | i.a | – | i.a | i.a | 5.21 | – | – | –
Cc1cc(-c2cccc(S(=O)(=O)NC(=O)[C@@H](N)C3CC3)c2)nc(N)n1 [Compound 5.33] | i.a | 158 °C (dec.) | i.a | i.a | – | – | – | 40
Cc1cc(-c2cccc(S(=O)(=O)NC(=O)[C@@H](N)CC3CCCCC3)c2)nc(N)n1 [Compound 5.34] | i.a | – | i.a | i.a | – | – | i.a | –
